Assay results from patent US6054435A, “6-O-substituted macrolides having antibacterial activity” (priority 1999, dated 2000).
In brackets after ≈: the same amount, converted by molar mass.

What was measured:
Assay in all cases: in vitro antibacterial activity (MIC), agar dilution
Format in all cases: cell-based
[1] = test system: Staphylococcus aureus A-5278; details: organism code CC; BHI agar, 35-37° C., 20 to 24 hours; unit assumed
Description: (§1) Representative compounds of the present invention were assayed in vitro for antibacterial activity as follows: Twelve petri dishes containing successive aqueous dilutions of the test compound mixed with 10 mL of sterilized Brain Heart Infusion (BHI) agar (Difco 0418-01-5) were prepared. Each plate was inoculated with 1:100 (or 1:10 for slow-growing strains, such as Micrococcus and Streptococcus) dilutions of up to 32 different microorganisms, using a Steers replicator block. […] In addition, a control plate, using BHI agar containing no test compound, was prepared and incubated at the beginning and end of each test.
(§2) An additional plate containing a compound having known susceptibility patterns for the organisms being tested and belonging to the same antibiotic class as the test compound was also prepared and incubated as a further control, as well as to provide test-to-test comparability.
(§3) After incubation, each plate was visually inspected. The minimum inhibitory concentration (MIC) was defined as the lowest concentration of drug yielding no growth, a slight haze, or sparsely isolated colonies on the inoculum spot as compared to the growth control.

[2] = test system: Escherichia coli SS; details: organism code RR; BHI agar, 35-37° C., 20 to 24 hours; unit assumed
Description: as §1, §2, §3

[3] = test system: Streptococcus bovis A-5169; details: organism code JJ; BHI agar, 35-37° C., 20 to 24 hours; unit assumed
Description: as §1, §2, §3

[4] = test system: Staphylococcus epidermidis 3519; details: organism code HH; BHI agar, 35-37° C., 20 to 24 hours; unit assumed
Description: as §1, §2, §3

[5] = test system: Streptococcus pyogenes PIU 2548; details: organism code NN; BHI agar, 35-37° C., 20 to 24 hours; unit assumed
Description: as §1, §2, §3

[6] = test system: Streptococcus Pneumonia 5979; details: organism code ZZ; BHI agar, 35-37° C., 20 to 24 hours; unit assumed
Description: as §1, §2, §3

[7] = test system: Micrococcus luteus ATCC 4698; details: organism code PP; BHI agar, 35-37° C., 20 to 24 hours; unit assumed
Description: as §1, §2, §3

[8] = test system: Mycobacterium smegmatis ATCC 114; details: organism code UU; BHI agar, 35-37° C., 20 to 24 hours; unit assumed
Description: as §1, §2, §3

[9] = test system: Streptococcus pyogenes 930; details: organism code MM; BHI agar, 35-37° C., 20 to 24 hours; unit assumed
Description: as §1, §2, §3

[10] = test system: Streptococcus agalactiae CMX 508; details: organism code KK; BHI agar, 35-37° C., 20 to 24 hours; unit assumed
Description: as §1, §2, §3

[11] = test system: Escherichia coli JUHL; details: organism code QQ; BHI agar, 35-37° C., 20 to 24 hours; unit assumed
Description: as §1, §2, §3

[12] = test system: Streptococcus Pneumonia ATCC6303; details: organism code XX; BHI agar, 35-37° C., 20 to 24 hours; unit assumed
Description: as §1, §2, §3

[13] = test system: Nocardia Asteroides ATCC9970; details: organism code VV; BHI agar, 35-37° C., 20 to 24 hours; unit assumed
Description: as §1, §2, §3

[14] = test system: Candida albicans CCH 442; details: organism code TT; BHI agar, 35-37° C., 20 to 24 hours; unit assumed
Description: as §1, §2, §3

[15] = test system: Escherichia coli DC-2; details: organism code SS; BHI agar, 35-37° C., 20 to 24 hours; unit assumed
Description: as §1, §2, §3

[16] = test system: Staphylococcus aureus NCTC10649M; details: organism code EE; BHI agar, 35-37° C., 20 to 24 hours; unit assumed
Description: as §1, §2, §3

[17] = test system: Staphylococcus aureus CMX 642A; details: organism code DD; BHI agar, 35-37° C., 20 to 24 hours; unit assumed
Description: as §1, §2, §3

[18] = test system: Haemophilis Influenzae DILL AMP R; details: organism code WW; BHI agar, 35-37° C., 20 to 24 hours; unit assumed
Description: as §1, §2, §3

[19] = test system: Staphylococcus aureus ATCC 6538P; details: organism code AA; BHI agar, 35-37° C., 20 to 24 hours; unit assumed
Description: as §1, §2, §3

[20] = test system: Staphylococcus aureus CMX 553; details: organism code FF; BHI agar, 35-37° C., 20 to 24 hours; unit assumed
Description: as §1, §2, §3

[21] = test system: Staphylococcus aureus A5177; details: organism code BB; BHI agar, 35-37° C., 20 to 24 hours; unit assumed
Description: as §1, §2, §3

[22] = test system: Staphylococcus aureus 1775; details: organism code GG; BHI agar, 35-37° C., 20 to 24 hours; unit assumed
Description: as §1, §2, §3

[23] = test system: Streptococcus Pneumonia 5649; details: organism code ZZA; BHI agar, 35-37° C., 20 to 24 hours; unit assumed
Description: as §1, §2, §3

[24] = test system: Streptococcus pyogenes EES61; details: organism code LL; BHI agar, 35-37° C., 20 to 24 hours; unit assumed
Description: as §1, §2, §3

[25] = test system: Streptococcus Pneumonia GYR 1171; details: organism code YY; BHI agar, 35-37° C., 20 to 24 hours; unit assumed
Description: as §1, §2, §3

[26] = test system: Micrococcus luteus ATCC 9341; details: organism code OO; BHI agar, 35-37° C., 20 to 24 hours; unit assumed
Description: as §1, §2, §3

[27] = test system: Enterococcus faecium ATCC 8043; details: organism code II; BHI agar, 35-37° C., 20 to 24 hours; unit assumed
Description: as §1, §2, §3

Row | SMILES | MIC [1] [mg/L] | MIC [2] [mg/L] | MIC [3] [mg/L] | MIC [4] [mg/L] | MIC [5] [mg/L] | MIC [6] [mg/L] | MIC [7] [mg/L] | MIC [8] [mg/L] | MIC [10] [mg/L] | MIC [11] [mg/L] | MIC [12] [mg/L] | MIC [13] [mg/L] | MIC [14] [mg/L] | MIC [15] [mg/L] | MIC [16] [mg/L] | MIC [17] [mg/L] | MIC [18] [mg/L] | MIC [19] [mg/L] | MIC [20] [mg/L] | MIC [21] [mg/L] | other results
1 | CC[C@H]1OC(=O)[C@H](C)C(=O)[C@H](C)[C@@H](O[C@@H]2O[C@H](C)C[C@H](N(C)C)[C@H]2O)[C@](C)(OCC#Cc2ccc(-c3cccc(OC)c3)s2)C[C@@H](C)C(=O)[C@H](C)[C@H]2NC(=O)O[C@@]21C [Example 14] | > 100 | 0.39 (≈ 0.473 µM) | ≤ 0.005 | 0.1 (≈ 0.121 µM) | 0.1 (≈ 0.121 µM) | 1 (≈ 1.21 µM) | 0.02 (≈ 0.0242 µM) | 0.2 (≈ 0.242 µM) | 0.01 (≈ 0.0121 µM) | > 100 | 0.03 (≈ 0.0364 µM) | 0.1 (≈ 0.121 µM) | > 100 | > 100 | 0.1 (≈ 0.121 µM) | 0.1 (≈ 0.121 µM) | 2 (≈ 2.42 µM) | 0.1 (≈ 0.121 µM) | 0.1 (≈ 0.121 µM) | 0.1 (≈ 0.121 µM) | MIC [9]: 1.56 mg/L (≈ 1.89 µM); MIC [22]: 50 mg/L (≈ 60.6 µM); MIC [23]: 0.25 mg/L (≈ 0.303 µM); MIC [24]: 0.01 mg/L (≈ 0.0121 µM); MIC [25]: 0.03 mg/L (≈ 0.0364 µM); MIC [26]: 0.01 mg/L (≈ 0.0121 µM)
2 | CC[C@H]1OC(=O)[C@H](C)C(=O)[C@H](C)[C@@H](O[C@@H]2O[C@H](C)C[C@H](N(C)C)[C@H]2O)[C@](C)(OCC#Cc2ccc(-c3cccc(Cl)c3)s2)C[C@@H](C)C(=O)[C@H](C)[C@H]2NC(=O)O[C@@]21C [Example 16] | 25 (≈ 30.1 µM) | 0.39 (≈ 0.47 µM) | 0.02 (≈ 0.0241 µM) | 0.2 (≈ 0.241 µM) | 0.2 (≈ 0.241 µM) | 2 (≈ 2.41 µM) | 0.2 (≈ 0.241 µM) | 0.2 (≈ 0.241 µM) | 0.02 (≈ 0.0241 µM) | > 100 | 0.03 (≈ 0.0362 µM) | 0.2 (≈ 0.241 µM) | > 100 | > 100 | 0.2 (≈ 0.241 µM) | 0.2 (≈ 0.241 µM) | 4 (≈ 4.82 µM) | 0.1 (≈ 0.121 µM) | 0.2 (≈ 0.241 µM) | 0.2 (≈ 0.241 µM) | MIC [27]: 0.1 mg/L (≈ 0.121 µM); MIC [22]: 12.5 mg/L (≈ 15.1 µM); MIC [23]: 0.25 mg/L (≈ 0.301 µM); MIC [24]: 0.1 mg/L (≈ 0.121 µM); MIC [25]: 0.03 mg/L (≈ 0.0362 µM); MIC [26]: 0.02 mg/L (≈ 0.0241 µM)
